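Assay format: 96-well plates, 48-hour exposure. At the GI50, growth is halved.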 Calls of active or inactive are those of the source. No stated cut-off is given here; in the data, active = GI50 up to about 1.1 µM and inactive = higher.

Among the test systems are ACHN; CAKI-1; COLO 205; DU-145; HT-29; IGROV-1; KM12; MDA-MB-435; MOLT-4; NCI-H226; NCI-H23; OVCAR-3; SK-MEL-28; SK-OV-3; U-251; UACC-257; UACC-62; HCC 2998; HCT-15; T47D.
What all share (experiment): growth of human tumour cells (NCI), 48 h

`CC1=Nc2c(C#N)ncn2N=C(C)C1`: the GI50 with ACHN, in the assay with CAKI-1, with COLO 205, with DU-145, in the assay on HT-29 and in the assay on IGROV-1 was > 100 µM (inactive) in each case. Besides, the GI50 with KM12, in the assay with MDA-MB-435, in the assay with MOLT-4, in the assay on NCI-H226, with NCI-H23 and in the assay with OVCAR-3 was > 100 µM (inactive) each time. The GI50 in the assay with SK-MEL-28 is > 100 µM (inactive); in the assay on SK-OV-3 it was 49 µM (inactive); with U-251, > 100 µM (inactive); with UACC-257, > 100 µM (inactive); in the assay with UACC-62, > 100 µM (inactive).
For `COc1ccc(/C=C\c2cc(OC)c(OC)c(OC)c2)cc1OCC(=O)O`, the GI50 is 10.2 µM (inactive) in the assay with ACHN; 48.2 µM (inactive) in the assay with CAKI-1; > 100 µM (inactive) in the assay on COLO 205; 6.46 µM (inactive) with DU-145; 88.9 µM (inactive) in the assay on HCC 2998; 9.62 µM with HCT-15. Further, the GI50 with HT-29 was > 100 µM (inactive); in the assay on IGROV-1, 46.8 µM (inactive); with KM12, 5.86 µM (inactive); in the assay with MDA-MB-435, 1.72 µM (inactive); in the assay on MOLT-4, 6.41 µM (inactive); with NCI-H226 it was 15.1 µM (inactive). Besides, the GI50 in the assay with NCI-H23 is 3.9 µM (inactive); with OVCAR-3, 2.69 µM (inactive); in the assay with SK-MEL-28 it was 6.61 µM (inactive); in the assay with SK-OV-3, 29 µM (inactive); with U-251 it was 5.96 µM (inactive); with UACC-257 it was 5.61 µM (inactive). In the assay on UACC-62, the GI50 was 4.99 µM (inactive).
With `O=C1C(NCCN2CCOCC2)=C(Cl)C(=O)c2ncccc21`, the GI50 in the assay on ACHN was 1.1 µM (active); in the assay on DU-145, 1.01 µM (active); in the assay on HCC 2998, 0.625 µM (active); in the assay with HCT-15, 0.339 µM; in the assay on HT-29, 0.637 µM (active); in the assay with IGROV-1, 1.05 µM (active). The GI50 with KM12 is 1.34 µM (inactive); in the assay with MDA-MB-435, 0.182 µM (active); with MOLT-4, 2.15 µM (inactive); in the assay with NCI-H226 it was 1.69 µM (inactive); in the assay with NCI-H23, 0.556 µM (active); in the assay on OVCAR-3, 0.392 µM (active). Further, the GI50 was 1.61 µM (inactive) in the assay on SK-MEL-28; 1.43 µM (inactive) in the assay with SK-OV-3; 1.39 µM (inactive) with T47D; 0.849 µM (active) in the assay with U-251; 0.618 µM (active) in the assay with UACC-62.
Take `CCc1cc2c(oc3c4ccccc4ccc23)c(=O)[nH]1`: the GI50 with ACHN, in the assay on DU-145, with HT-29, in the assay with IGROV-1, in the assay with KM12 and with MDA-MB-435 was > 10 µM (inactive) in each case. The GI50 with MOLT-4, with NCI-H226, in the assay with NCI-H23, with OVCAR-3, with SK-OV-3 and in the assay on U-251 was > 10 µM (inactive) in each case. Besides, the GI50 with UACC-257 and in the assay on UACC-62 was > 10 µM (inactive) in each case.
Regarding `COC1OC(C(=O)O)C2OC(C)(C)OC12` (stereo unspecified), the GI50 is > 100 µM (inactive) in the assay on ACHN; > 100 µM (inactive) in the assay on CAKI-1; > 100 µM (inactive) in the assay with COLO 205; > 100 µM (inactive) with DU-145; > 100 µM (inactive) with HCC 2998; greater than 100 µM in the assay with HCT-15. The GI50 in the assay on HT-29, in the assay with IGROV-1, in the assay on KM12, with MDA-MB-435, in the assay on MOLT-4 and in the assay with NCI-H226 was > 100 µM (inactive) each time. Moreover, the GI50 in the assay on NCI-H23, with OVCAR-3, with SK-MEL-28, in the assay with SK-OV-3, with U-251 and in the assay with UACC-257 was > 100 µM (inactive) throughout. Besides, the GI50 in the assay on UACC-62 is > 100 µM (inactive).
`CN1CNc2nc(N)n(C)c(=O)c2C1`: the GI50 with ACHN is > 10 µM (inactive); in the assay on DU-145 it was > 10 µM (inactive); with HCC 2998, > 10 µM (inactive); with HCT-15, greater than 10 µM; with HT-29 it was > 10 µM (inactive); in the assay on IGROV-1, > 10 µM (inactive). The GI50 with KM12, with MDA-MB-435, with MOLT-4, with NCI-H226, with NCI-H23 and in the assay with OVCAR-3 was > 10 µM (inactive) throughout. The GI50 in the assay with SK-OV-3, in the assay with U-251, with UACC-257 and in the assay with UACC-62 was > 10 µM (inactive) throughout.
Regarding `O=C(Nc1cccc(C(F)(F)F)c1)O/N=C(/Cl)CCl`, the GI50 is > 100 µM (inactive) in the assay with ACHN; > 100 µM (inactive) in the assay with CAKI-1; 67.5 µM (inactive) in the assay with COLO 205; > 100 µM (inactive) with DU-145; > 100 µM (inactive) in the assay on HCC 2998; 46.3 µM in the assay with HCT-15. Moreover, the GI50 in the assay with HT-29 was 51.9 µM (inactive); in the assay with IGROV-1, 62.4 µM (inactive); in the assay with KM12, > 100 µM (inactive); with MOLT-4, 28.2 µM (inactive); in the assay with NCI-H23, 47.3 µM (inactive); with OVCAR-3 it was 38.9 µM (inactive). Moreover, the GI50 was 41.5 µM (inactive) in the assay with SK-MEL-28; > 100 µM (inactive) with SK-OV-3; 53.5 µM (inactive) with T47D; 39.5 µM (inactive) with U-251; > 100 µM (inactive) with UACC-257.
As for `COc1cc2c3c(c1Oc1nnnn1-c1ccccc1)-c1c(ccc4c1OCO4)C[C@H]3N(C)CC2`, the GI50 in the assay on ACHN was 25.7 µM (inactive); with COLO 205, 32.2 µM (inactive); in the assay with DU-145, 71 µM (inactive); in the assay on HCC 2998 it was 20.7 µM (inactive); in the assay on HCT-15 it was 21.6 µM; in the assay on HT-29 it was 18.5 µM (inactive). The GI50 with IGROV-1 was 41.6 µM (inactive); in the assay with KM12 it was 32.1 µM (inactive); with MDA-MB-435, 20.2 µM (inactive); in the assay on MOLT-4, 35.7 µM (inactive); in the assay with NCI-H226, > 100 µM (inactive); with NCI-H23, 36.6 µM (inactive). The GI50 is 37.4 µM (inactive) in the assay on OVCAR-3; 17.8 µM (inactive) in the assay with SK-MEL-28; 72.9 µM (inactive) in the assay with SK-OV-3; 33.7 µM (inactive) with T47D; 69 µM (inactive) in the assay on U-251; 20.5 µM (inactive) in the assay with UACC-257. For the same compound, the GI50 in the assay on UACC-62 was 14.3 µM (inactive).
With `CCCCCCCCCCCCCCCCCc1nnc(N)o1`, the GI50 in the assay on ACHN was > 100 µM (inactive); in the assay with CAKI-1, > 100 µM (inactive); with COLO 205, > 100 µM (inactive); in the assay with HCC 2998 it was > 100 µM (inactive); in the assay with HCT-15, greater than 100 µM; in the assay on HT-29, > 100 µM (inactive). Further, the GI50 in the assay on IGROV-1 was > 100 µM (inactive); in the assay on KM12 it was > 100 µM (inactive); in the assay on MOLT-4, > 100 µM (inactive); in the assay with NCI-H226, > 100 µM (inactive); in the assay on NCI-H23 it was 47.4 µM (inactive); in the assay on OVCAR-3 it was > 100 µM (inactive). Moreover, the GI50 with SK-MEL-28, in the assay on SK-OV-3, in the assay with U-251, in the assay with UACC-257 and in the assay with UACC-62 was > 100 µM (inactive) throughout.
Take `C=CCn1cc(C(=O)NC(=O)NCCCCCOC(=O)CCCCCCCCCCC(=O)OCCCCCNC(=O)NC(=O)c2cn(CC=C)c(=O)n(C)c2=O)c(=O)n(C)c1=O`: the GI50 in the assay with ACHN was > 100 µM (inactive); in the assay with CAKI-1, > 100 µM (inactive); in the assay with COLO 205 it was > 100 µM (inactive); in the assay with HCC 2998, > 100 µM (inactive); with HCT-15, greater than 100 µM; with HT-29, > 100 µM (inactive). Also, the GI50 with IGROV-1, with KM12, in the assay on MOLT-4, in the assay with NCI-H226, with NCI-H23 and in the assay with OVCAR-3 was > 100 µM (inactive) throughout. Also, the GI50 in the assay on SK-MEL-28, in the assay on SK-OV-3, in the assay with U-251, with UACC-257 and with UACC-62 was > 100 µM (inactive) throughout.
Turning to `CC(C)=CCCC1(Sc2ccccc2)C(=O)OCC1C=C(C)C` (stereo unspecified), the GI50 with ACHN was 32.5 µM (inactive); in the assay with CAKI-1, 23.2 µM (inactive); with COLO 205, 23.2 µM (inactive); in the assay with HCC 2998 it was 29.8 µM (inactive); with HCT-15, 29.9 µM; in the assay with IGROV-1 it was 16.8 µM (inactive). In addition, the GI50 is 27 µM (inactive) with KM12; 32.1 µM (inactive) with MDA-MB-435; 7.31 µM (inactive) in the assay with MOLT-4; 24.3 µM (inactive) in the assay with NCI-H226; 31.3 µM (inactive) with NCI-H23; 17.3 µM (inactive) with OVCAR-3. The GI50 in the assay with SK-MEL-28 was 47.3 µM (inactive); in the assay with SK-OV-3, 21.1 µM (inactive); in the assay on T47D, 22.4 µM (inactive); with U-251, 27.7 µM (inactive); with UACC-257 it was 17.5 µM (inactive).
As to `Cn1cnc(S[C@H]2[C@H]3C(=O)C=C4S[C@H]5C[C@]42C2=C(N5)C(=O)c4[nH]cc5c4C2=[N+]3CC5)c1C[C@H](N)C(=O)O`, the GI50 in the assay on ACHN is 14.8 µM (inactive); in the assay with CAKI-1, 27 µM (inactive); in the assay on COLO 205, 2.11 µM (inactive); in the assay on HCC 2998, 16.2 µM (inactive); in the assay with HCT-15, 30.8 µM; with HT-29, 4.09 µM (inactive). Besides, the GI50 is 16.4 µM (inactive) in the assay with IGROV-1; 16.7 µM (inactive) in the assay on KM12; 12.7 µM (inactive) in the assay with MOLT-4; 19.4 µM (inactive) with NCI-H226; 10.7 µM (inactive) in the assay with NCI-H23; 3.5 µM (inactive) in the assay on OVCAR-3. Also, the GI50 in the assay on SK-MEL-28 is 16.8 µM (inactive); with SK-OV-3 it was 21.4 µM (inactive); in the assay on U-251, 17.2 µM (inactive); with UACC-257 it was 16.1 µM (inactive); in the assay with UACC-62, 15.7 µM (inactive).

Source of the values: ChEMBL document CHEMBL1201862, “PubChem BioAssay data set” (2004).
